Laboratory results as given in ChEMBL document CHEMBL4507301 (2021).

Key:
[1] = target: Dual specificity mitogen-activated protein kinase kinase 2 (Homo sapiens) (UniProt P36507); settings: Compound concentration 1000.0 nM
[2] = target: Sodium-dependent serotonin transporter (Homo sapiens) (UniProt P31645); settings: Compound concentration 10.0 uM
[3] = target: Cyclin-dependent kinase 7 (Homo sapiens) (UniProt P50613); settings: Compound concentration 1000.0 nM
[4] = test system: Receptor-type tyrosine-protein kinase FLT3 (Homo sapiens), P36888 [UNDEFINED MUTATION]; settings: Compound concentration 1000.0 nM
[5] = target: Ephrin type-B receptor 1 (Homo sapiens) (UniProt P54762); settings: Compound concentration 1000.0 nM
[6] = target: Phosphatidylinositol 5-phosphate 4-kinase type-2 gamma (Homo sapiens) (UniProt Q8TBX8); settings: Compound concentration 1000.0 nM
[7] = target: Vascular endothelial growth factor receptor 2 (Homo sapiens) (UniProt P35968); settings: Compound concentration 1000.0 nM
[8] = target: Mitogen-activated protein kinase 11 (Homo sapiens) (UniProt Q15759); settings: Compound concentration 1000.0 nM
[9] = test system: Receptor-type tyrosine-protein kinase FLT3 (Homo sapiens), P36888 [UNDEFINED MUTATION]; settings: Compound concentration 1000.0 nM; remark: listed apart in the source
[10] = target: 5-hydroxytryptamine receptor 1A (Homo sapiens) (UniProt P08908); settings: Compound concentration 10.0 uM
[11] = target: Serine/threonine-protein kinase 33 (Homo sapiens) (UniProt Q9BYT3); settings: Compound concentration 1000.0 nM
[12] = target: BMP-2-inducible protein kinase (Homo sapiens) (UniProt Q9NSY1); settings: Compound concentration 1000.0 nM
[13] = test system: Phosphatidylinositol 4,5-bisphosphate 3-kinase catalytic subunit alpha isoform (Homo sapiens), P42336 [Q546K]; settings: Compound concentration 1000.0 nM
[14] = target: RAF proto-oncogene serine/threonine-protein kinase (Homo sapiens) (UniProt P04049); settings: Compound concentration 1000.0 nM
[15] = target: Serine/threonine-protein kinase PRP4 homolog (Homo sapiens) (UniProt Q13523); settings: Compound concentration 1000.0 nM
[16] = target: Calcium/calmodulin-dependent protein kinase type II subunit beta (Homo sapiens) (UniProt Q13554); settings: Compound concentration 1000.0 nM
[17] = target: Tyrosine-protein kinase TXK (Homo sapiens) (UniProt P42681); settings: Compound concentration 1000.0 nM
[18] = target: Non-receptor tyrosine-protein kinase TYK2 (Homo sapiens) (UniProt P29597); settings: Compound concentration 1000.0 nM
[19] = target: Mitogen-activated protein kinase kinase kinase 13 (Homo sapiens) (UniProt O43283); settings: Compound concentration 1000.0 nM
[20] = target: Aurora kinase B (Homo sapiens) (UniProt Q96GD4); settings: Compound concentration 1000.0 nM
[21] = target: Serine/threonine-protein kinase PLK2 (Homo sapiens) (UniProt Q9NYY3); settings: Compound concentration 1000.0 nM
[22] = target: Serine/threonine-protein kinase TAO1 (Homo sapiens) (UniProt Q7L7X3); settings: Compound concentration 1000.0 nM
[23] = target: Serine/threonine-protein kinase D1 (Homo sapiens) (UniProt Q15139); settings: Compound concentration 1000.0 nM
[24] = target: Mitogen-activated protein kinase 1 (Homo sapiens) (UniProt P28482); settings: Compound concentration 1000.0 nM
[25] = target: Rho-associated protein kinase 1 (Homo sapiens) (UniProt Q13464); settings: Compound concentration 1000.0 nM
[26] = target: Serine/threonine-protein kinase D3 (Homo sapiens) (UniProt O94806); settings: Compound concentration 1000.0 nM
[27] = target: MAP kinase-interacting serine/threonine-protein kinase 2 (Homo sapiens) (UniProt Q9HBH9); settings: Compound concentration 1000.0 nM
[28] = target: Mitogen-activated protein kinase kinase kinase 9 (Homo sapiens) (UniProt P80192); settings: Compound concentration 1000.0 nM
[29] = target: Death-associated protein kinase 2 (Homo sapiens) (UniProt Q9UIK4); settings: Compound concentration 1000.0 nM
[30] = target: Ephrin type-A receptor 7 (Homo sapiens) (UniProt Q15375); settings: Compound concentration 1000.0 nM
[31] = target: Tyrosine-protein kinase ABL2 (Homo sapiens) (UniProt P42684); settings: Compound concentration 1000.0 nM
[32] = target: Fibroblast growth factor receptor 4 (Homo sapiens) (UniProt P22455); settings: Compound concentration 1000.0 nM
[33] = target: Ribosomal protein S6 kinase alpha-2 (Homo sapiens) (UniProt Q15349); settings: Compound concentration 1000.0 nM
[34] = target: Receptor-type tyrosine-protein kinase FLT3 (Homo sapiens) (UniProt P36888); settings: Compound concentration 1000.0 nM
[35] = target: cAMP-dependent protein kinase catalytic subunit beta (Homo sapiens) (UniProt P22694); settings: Compound concentration 1000.0 nM
[36] = target: Phosphatidylinositol 4,5-bisphosphate 3-kinase catalytic subunit gamma isoform (Homo sapiens) (UniProt P48736); settings: Compound concentration 1000.0 nM
[37] = target: Serine/threonine-protein kinase WNK3 (Homo sapiens) (UniProt Q9BYP7); settings: Compound concentration 1000.0 nM
[38] = target: Serine/threonine-protein kinase RIO3 (Homo sapiens) (UniProt O14730); settings: Compound concentration 1000.0 nM
[39] = test system: Serine/threonine-protein kinase B-raf (Homo sapiens), P15056 [V600E]; settings: Compound concentration 1000.0 nM
[40] = test system: Receptor-type tyrosine-protein kinase FLT3 (Homo sapiens), P36888 [K663Q]; settings: Compound concentration 1000.0 nM
[41] = test system: Tyrosine-protein kinase ABL1 (Homo sapiens), P00519 [M351T]; settings: Compound concentration 1000.0 nM
[42] = target: Leucine-rich repeat serine/threonine-protein kinase 2 (Homo sapiens) (UniProt Q5S007); settings: Compound concentration 1000.0 nM
[43] = target: Muscarinic acetylcholine receptor M3 (Homo sapiens) (UniProt P20309); settings: Compound concentration 10.0 uM
[44] = target: Casein kinase II subunit alpha (Homo sapiens) (UniProt P68400); settings: Compound concentration 1000.0 nM

Ephrin type-B receptor 1 (Homo sapiens), sequence (P54762 whole entry): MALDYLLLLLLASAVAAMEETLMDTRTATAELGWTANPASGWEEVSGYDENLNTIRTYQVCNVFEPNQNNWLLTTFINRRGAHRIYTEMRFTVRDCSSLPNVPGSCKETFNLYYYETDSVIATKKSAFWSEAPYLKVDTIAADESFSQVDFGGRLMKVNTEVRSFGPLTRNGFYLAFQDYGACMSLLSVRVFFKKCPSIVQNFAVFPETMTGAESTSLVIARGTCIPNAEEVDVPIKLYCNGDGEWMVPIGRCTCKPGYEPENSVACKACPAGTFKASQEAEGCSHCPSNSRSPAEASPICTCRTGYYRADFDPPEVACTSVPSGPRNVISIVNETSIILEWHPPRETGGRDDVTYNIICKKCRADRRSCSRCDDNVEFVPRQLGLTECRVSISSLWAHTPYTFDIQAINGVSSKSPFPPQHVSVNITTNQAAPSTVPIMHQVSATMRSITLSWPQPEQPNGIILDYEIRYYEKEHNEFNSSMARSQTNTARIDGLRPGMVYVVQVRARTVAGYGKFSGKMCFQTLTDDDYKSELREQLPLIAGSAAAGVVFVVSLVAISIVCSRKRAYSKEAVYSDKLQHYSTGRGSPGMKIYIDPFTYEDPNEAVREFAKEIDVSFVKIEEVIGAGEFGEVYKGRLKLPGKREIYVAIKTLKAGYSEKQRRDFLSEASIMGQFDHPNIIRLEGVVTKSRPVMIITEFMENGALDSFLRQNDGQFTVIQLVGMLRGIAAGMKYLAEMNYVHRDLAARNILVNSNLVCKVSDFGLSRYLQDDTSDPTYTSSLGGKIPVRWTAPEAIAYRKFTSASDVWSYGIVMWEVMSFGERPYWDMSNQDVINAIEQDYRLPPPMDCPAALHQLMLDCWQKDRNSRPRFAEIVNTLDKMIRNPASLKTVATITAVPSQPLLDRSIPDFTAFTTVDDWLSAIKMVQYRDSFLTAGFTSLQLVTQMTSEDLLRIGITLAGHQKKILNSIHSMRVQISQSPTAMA
RAF proto-oncogene serine/threonine-protein kinase (Homo sapiens), sequence (P04049 whole entry): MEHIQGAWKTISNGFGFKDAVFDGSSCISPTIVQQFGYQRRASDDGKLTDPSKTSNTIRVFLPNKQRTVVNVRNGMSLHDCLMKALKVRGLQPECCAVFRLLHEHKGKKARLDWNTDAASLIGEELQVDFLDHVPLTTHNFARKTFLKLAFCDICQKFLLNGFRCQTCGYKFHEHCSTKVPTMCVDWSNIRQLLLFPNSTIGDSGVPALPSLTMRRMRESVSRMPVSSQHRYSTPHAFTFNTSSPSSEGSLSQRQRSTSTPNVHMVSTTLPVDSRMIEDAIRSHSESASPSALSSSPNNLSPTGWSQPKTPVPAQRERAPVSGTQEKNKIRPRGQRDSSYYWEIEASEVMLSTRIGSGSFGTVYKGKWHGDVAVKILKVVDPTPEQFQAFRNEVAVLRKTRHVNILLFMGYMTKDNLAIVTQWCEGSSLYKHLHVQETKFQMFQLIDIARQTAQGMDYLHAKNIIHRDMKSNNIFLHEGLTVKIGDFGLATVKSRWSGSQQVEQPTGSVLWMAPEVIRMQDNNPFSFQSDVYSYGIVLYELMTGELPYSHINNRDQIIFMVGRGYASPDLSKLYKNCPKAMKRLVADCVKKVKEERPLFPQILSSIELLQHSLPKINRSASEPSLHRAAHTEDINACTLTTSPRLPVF
Mitogen-activated protein kinase kinase kinase 9 (Homo sapiens), sequence (P80192 whole entry, looked up): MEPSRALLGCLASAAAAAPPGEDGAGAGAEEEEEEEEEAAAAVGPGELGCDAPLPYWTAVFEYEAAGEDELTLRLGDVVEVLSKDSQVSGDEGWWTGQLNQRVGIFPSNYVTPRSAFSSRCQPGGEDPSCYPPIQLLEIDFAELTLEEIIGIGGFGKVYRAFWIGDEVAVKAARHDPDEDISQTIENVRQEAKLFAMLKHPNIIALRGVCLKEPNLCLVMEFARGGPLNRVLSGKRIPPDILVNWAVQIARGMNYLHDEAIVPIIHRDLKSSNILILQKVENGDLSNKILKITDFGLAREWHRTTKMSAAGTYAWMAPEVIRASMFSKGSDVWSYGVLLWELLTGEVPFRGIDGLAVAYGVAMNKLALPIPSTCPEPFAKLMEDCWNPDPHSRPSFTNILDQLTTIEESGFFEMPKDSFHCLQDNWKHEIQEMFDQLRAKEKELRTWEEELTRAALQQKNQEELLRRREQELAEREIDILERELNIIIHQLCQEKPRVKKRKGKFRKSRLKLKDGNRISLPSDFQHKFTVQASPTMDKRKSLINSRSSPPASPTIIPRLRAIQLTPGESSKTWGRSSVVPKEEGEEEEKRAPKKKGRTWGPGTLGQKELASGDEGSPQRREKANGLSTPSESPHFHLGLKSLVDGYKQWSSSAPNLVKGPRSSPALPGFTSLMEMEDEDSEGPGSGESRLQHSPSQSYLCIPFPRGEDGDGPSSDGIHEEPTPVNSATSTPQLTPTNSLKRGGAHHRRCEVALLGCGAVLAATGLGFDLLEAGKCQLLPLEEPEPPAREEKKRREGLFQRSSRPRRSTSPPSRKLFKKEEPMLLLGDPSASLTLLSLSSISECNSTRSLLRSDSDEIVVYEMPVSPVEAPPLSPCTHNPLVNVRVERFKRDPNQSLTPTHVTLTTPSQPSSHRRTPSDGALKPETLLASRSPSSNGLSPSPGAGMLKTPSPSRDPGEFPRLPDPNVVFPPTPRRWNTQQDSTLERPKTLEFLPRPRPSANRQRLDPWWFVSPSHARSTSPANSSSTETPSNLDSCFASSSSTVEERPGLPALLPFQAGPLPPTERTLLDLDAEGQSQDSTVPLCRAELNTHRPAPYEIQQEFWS
Non-receptor tyrosine-protein kinase TYK2 (Homo sapiens), sequence (P29597 whole entry): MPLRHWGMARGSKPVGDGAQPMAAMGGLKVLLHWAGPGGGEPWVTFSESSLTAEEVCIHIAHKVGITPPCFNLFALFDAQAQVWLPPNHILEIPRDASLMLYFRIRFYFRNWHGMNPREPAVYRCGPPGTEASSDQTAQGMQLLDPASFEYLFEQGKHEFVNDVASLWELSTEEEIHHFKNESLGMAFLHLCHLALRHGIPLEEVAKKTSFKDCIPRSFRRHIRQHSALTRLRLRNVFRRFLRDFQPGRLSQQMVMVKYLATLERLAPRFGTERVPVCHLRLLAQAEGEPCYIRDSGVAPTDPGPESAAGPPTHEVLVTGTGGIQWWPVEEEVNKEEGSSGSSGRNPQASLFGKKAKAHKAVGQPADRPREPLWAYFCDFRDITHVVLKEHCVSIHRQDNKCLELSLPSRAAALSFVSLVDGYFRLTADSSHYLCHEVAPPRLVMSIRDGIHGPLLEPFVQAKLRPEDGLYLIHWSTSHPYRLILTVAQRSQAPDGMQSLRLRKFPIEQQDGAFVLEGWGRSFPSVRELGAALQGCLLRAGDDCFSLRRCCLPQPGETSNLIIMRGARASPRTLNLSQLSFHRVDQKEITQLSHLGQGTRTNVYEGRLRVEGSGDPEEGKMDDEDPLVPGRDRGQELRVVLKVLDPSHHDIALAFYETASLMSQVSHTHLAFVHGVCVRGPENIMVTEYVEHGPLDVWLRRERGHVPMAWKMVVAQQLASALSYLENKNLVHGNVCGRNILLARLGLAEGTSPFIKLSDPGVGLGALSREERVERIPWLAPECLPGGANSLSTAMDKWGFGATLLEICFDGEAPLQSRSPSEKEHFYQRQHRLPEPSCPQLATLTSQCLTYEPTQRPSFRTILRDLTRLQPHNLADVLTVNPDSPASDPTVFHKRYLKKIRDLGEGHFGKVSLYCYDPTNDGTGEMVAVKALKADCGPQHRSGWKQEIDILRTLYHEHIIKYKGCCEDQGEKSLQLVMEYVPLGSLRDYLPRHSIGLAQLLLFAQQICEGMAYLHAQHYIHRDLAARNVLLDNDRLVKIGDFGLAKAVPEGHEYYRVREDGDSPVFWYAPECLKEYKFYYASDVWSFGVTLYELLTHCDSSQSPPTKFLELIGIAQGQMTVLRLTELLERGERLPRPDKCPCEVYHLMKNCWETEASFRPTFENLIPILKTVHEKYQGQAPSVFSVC
Fibroblast growth factor receptor 4 (Homo sapiens), sequence (P22455 22-802 limits assumed): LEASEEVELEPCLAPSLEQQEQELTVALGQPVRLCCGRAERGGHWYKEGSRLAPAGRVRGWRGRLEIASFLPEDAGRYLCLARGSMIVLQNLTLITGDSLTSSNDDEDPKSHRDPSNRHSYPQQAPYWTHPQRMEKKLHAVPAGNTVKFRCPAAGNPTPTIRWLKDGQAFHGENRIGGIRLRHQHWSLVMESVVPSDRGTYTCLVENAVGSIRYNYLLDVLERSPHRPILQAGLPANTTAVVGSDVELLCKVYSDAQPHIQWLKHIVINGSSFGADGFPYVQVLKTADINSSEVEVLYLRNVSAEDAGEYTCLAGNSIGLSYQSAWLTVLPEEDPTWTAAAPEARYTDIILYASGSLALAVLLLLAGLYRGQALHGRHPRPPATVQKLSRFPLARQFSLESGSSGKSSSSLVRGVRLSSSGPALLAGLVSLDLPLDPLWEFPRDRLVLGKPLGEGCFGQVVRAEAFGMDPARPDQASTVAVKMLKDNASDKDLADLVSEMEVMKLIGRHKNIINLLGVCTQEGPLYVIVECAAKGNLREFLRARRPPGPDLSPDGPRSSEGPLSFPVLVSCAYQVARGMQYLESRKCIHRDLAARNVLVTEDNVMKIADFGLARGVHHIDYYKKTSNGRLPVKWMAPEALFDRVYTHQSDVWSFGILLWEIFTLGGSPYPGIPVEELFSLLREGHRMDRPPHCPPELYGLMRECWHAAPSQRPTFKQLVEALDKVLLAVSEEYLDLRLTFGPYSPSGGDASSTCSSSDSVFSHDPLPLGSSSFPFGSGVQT
Cyclin-dependent kinase 7 (Homo sapiens), sequence (P50613 whole entry): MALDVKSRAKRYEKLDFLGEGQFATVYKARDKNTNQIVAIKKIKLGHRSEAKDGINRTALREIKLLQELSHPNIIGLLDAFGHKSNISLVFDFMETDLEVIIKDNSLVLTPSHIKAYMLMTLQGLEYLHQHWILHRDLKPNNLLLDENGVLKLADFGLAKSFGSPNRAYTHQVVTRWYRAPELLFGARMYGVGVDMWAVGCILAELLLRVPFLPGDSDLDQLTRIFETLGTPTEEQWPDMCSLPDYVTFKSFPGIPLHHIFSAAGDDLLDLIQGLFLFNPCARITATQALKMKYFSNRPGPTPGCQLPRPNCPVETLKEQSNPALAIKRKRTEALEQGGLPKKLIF

C[C@H](c1cccc(C#N)c1)n1cc(Cl)cc(C(N)=O)c1=N [(R)-9s]
residual activity [1]: 80% | inhibition [2]: 9.99% | residual activity [3]: 78% | residual activity [4]: 100% | residual activity [5]: 100% | residual activity [6]: 100% | residual activity [7]: 88% | residual activity [8]: 100% | residual activity [9]: 82% | inhibition [10]: -4.95% | residual activity [11]: 92% | residual activity [12]: 100% | residual activity [13]: 100% | residual activity [14]: 100% | residual activity [15]: 93% | residual activity [16]: 100% | residual activity [17]: 85% | residual activity [18]: 75% | residual activity [19]: 97% | residual activity [20]: 100% | residual activity [21]: 92% | residual activity [22]: 90% | residual activity [23]: 100% | residual activity [24]: 93% | residual activity [25]: 71% | residual activity [26]: 65% | residual activity [27]: 100% | residual activity [28]: 95% | residual activity [29]: 100% | residual activity [30]: 98% | residual activity [31]: 90% | residual activity [32]: 87% | residual activity [33]: 62% | residual activity [34]: 95% | residual activity [35]: 98% | residual activity [36]: 98% | residual activity [37]: 80% | residual activity [38]: 100% | residual activity [39]: 100% | residual activity [40]: 100% | residual activity [41]: 100% | residual activity [42]: 100% | inhibition [43]: -8.15% | residual activity [44]: 67%

C[C@@H](c1cccc(C#N)c1)n1cc(Cl)cc(C(N)=O)c1=N [(S)-9s]
residual activity [1]: 76% | inhibition [2]: 14.8% | residual activity [3]: 81% | residual activity [4]: 96% | residual activity [5]: 94% | residual activity [6]: 85% | residual activity [7]: 73% | residual activity [8]: 93% | residual activity [9]: 85% | inhibition [10]: 1.02% | residual activity [11]: 100% | residual activity [12]: 93% | residual activity [13]: 100% | residual activity [14]: 100% | residual activity [15]: 100% | residual activity [16]: 100% | residual activity [17]: 68% | residual activity [18]: 94% | residual activity [19]: 100% | residual activity [20]: 100% | residual activity [21]: 97% | residual activity [22]: 89% | residual activity [23]: 90% | residual activity [24]: 82% | residual activity [25]: 71% | residual activity [26]: 100% | residual activity [27]: 100% | residual activity [28]: 100% | residual activity [29]: 100% | residual activity [30]: 100% | residual activity [31]: 84% | residual activity [32]: 100% | residual activity [33]: 100% | residual activity [34]: 100% | residual activity [35]: 100% | residual activity [36]: 100% | residual activity [37]: 82% | residual activity [38]: 87% | residual activity [39]: 95% | residual activity [40]: 92% | residual activity [41]: 0% | residual activity [42]: 100% | inhibition [43]: -6.17% | residual activity [44]: 72%
